Results reported in ChEMBL document CHEMBL1697781, “Assessment of the health effects of chemicals in humans: II. Construction of an adverse effects database for QSAR modeling” (Curr Drug Discov Technol, 2004).

Key:
Conditions in all cases: human; call rule not given here
[1] = tested on: Hepatotoxicity; assay: FDA HLAED, liver enzyme composite activity
[2] = tested on: Hepatotoxicity; assay: FDA HLAED, alkaline phosphatase increase
[3] = tested on: Hepatotoxicity; assay: FDA HLAED, serum glutamic oxaloacetic transaminase (SGOT) increase
[4] = tested on: Hepatotoxicity; assay: FDA HLAED, serum glutamic pyruvic transaminase (SGPT) increase
[5] = tested on: Hepatotoxicity; assay: FDA HLAED, lactate dehydrogenase (LDH) increase
[6] = tested on: Hepatotoxicity; assay: FDA HLAED, gamma-glutamyl transferase (GGT) increase
Wherever GGT Increase - Index Value is given: reference of the scale not given here.
Wherever LDH Increase - Index Value is given: reference of the scale not given here.

| Compound | Composite Activity - Active [1] | Composite Activity - Marginal [1] | Composite Activity - Score [1] | Alkaline Phosphatase Increase - Activity Score [2] | Alkaline Phosphatase Increase - Index Value [2] | Alkaline Phosphatase Increase - Number of Reports [2] | SGOT Increase - Activity Score [3] | SGOT Increase - Index Value [3] | SGOT Increase - Number of Reports [3] | SGPT Increase - Activity Score [4] | SGPT Increase - Index Value [4] | SGPT Increase - Number of Reports [4] | LDH Increase - Activity Score [5] | LDH Increase - Index Value [5] | LDH Increase - Number of Reports [5] | GGT Increase - Activity Score [6] | GGT Increase - Index Value [6] | GGT Increase - Number of Reports [6] | Composite Activity - Active ([1]; Liver) | Composite Activity - Marginal ([1]; Liver) | also measured |
| --- | --- | --- | --- | --- | --- | --- | --- | --- | --- | --- | --- | --- | --- | --- | --- | --- | --- | --- | --- | --- | --- |
| COC(=O)C1=C(C)NC(C)=C(C(=O)OCCN(C)Cc2ccccc2)C1c1cccc([N+](=O)[O-])c1 (stereo not drawn) [NICARDIPINE] | 0 | 1 | Inactive | Inactive | 2 | >= 4 | Marginally Active | 3 | >= 4 | Inactive | 2.5 | >= 4 | Inactive | 0.9 | >= 4 | Inactive | 0.4 | < 4 |  |  |  |
| CN1CCC[C@H]1c1cccnc1 [NICOTINE] |  |  |  | Inactive | 0 | < 4 | Inactive | 0.6 | < 4 | Inactive | 0.6 | < 4 | Inactive | 0.9 | < 4 | Inactive | 0.3 | < 4 | 0 | 0 | Composite Activity - Score ([1]; Liver): Inactive |
| COC(=O)C1=C(C)NC(C)=C(C(=O)OC)C1c1ccccc1[N+](=O)[O-] [NIFEDIPINE] | 0 | 0 | Inactive | Inactive | 0.3 | < 4 | Inactive | 0.6 | >= 4 | Inactive | 0.4 | >= 4 | Inactive | 0.1 | < 4 | Inactive | 0 | < 4 |  |  |  |
| CC1(C)NC(=O)N(c2ccc([N+](=O)[O-])c(C(F)(F)F)c2)C1=O [NILUTAMIDE] |  |  |  | Inactive | 0 | < 4 | Inactive | 19.5 | < 4 | Inactive | 19.5 | < 4 | Inactive | 0 | < 4 | Inactive | 0 | < 4 | 0 | 0 | Composite Activity - Score ([1]; Liver): Inactive |
| COCCOC(=O)C1=C(C)NC(C)=C(C(=O)OC(C)C)C1c1cccc([N+](=O)[O-])c1 (stereo not drawn) [NIMODIPINE] | 5 | 0 | Active | Active | 17.6 | < 4 | Active | 23.4 | >= 4 | Active | 29.3 | >= 4 | Active | 23.4 | >= 4 | Active | 17.6 | < 4 |  |  |  |
| COC(=O)C1=C(C)NC(C)=C(C(=O)OCC(C)C)C1c1ccccc1[N+](=O)[O-] (stereo not drawn) [NISOLDIPINE] | 0 | 0 | Inactive | Inactive | 0 | < 4 | Inactive | 3.2 | < 4 | Inactive | 1.6 | < 4 | Inactive | 0 | < 4 | Inactive | 0 | < 4 |  |  |  |
